Measured values as given in patent publication US20250057764A1, “COMPOSITIONS, METHODS AND SYSTEMS FOR AEROSOL DRUG DELIVERY” (ASTRAZENECA AB, priority 2021, published 2025).
Structures can show the parent of a compound that is named as a salt. Where two headings read alike, the source gives them in different places.

Legend:
[1] = Particle size distribution by laser diffraction; type: physicochemical
Text: When referred to herein, the term “optical diameter” indicates the size of a particle as measured by the Fraunhofer diffraction mode using a laser diffraction particle size analyzer equipped with a dry powder dispenser (e.g., Sympatec GmbH, Clasthal-Zellerfeld, Germany).
Suspending particles were manufactured by spray drying an emulsion of PFOB (perfluorooctyl bromide) and water stabilized by DSPC (1,2-Distearoyl-sn-Glycero-3-Phosphocholine). Detailed preparation procedures have been documented previously. The particle size distribution of the suspending particles was determined by laser diffraction.
Active agent particles formed of budesonide, 16,17-(butylidenebis(oxy))-11,21-dihydroxy-, (11-β,16-α)-pregna-1,4-diene-3,20-dione, were formed by micronizing budesonide using a jet mill. The particle size distribution of the budesonide (BD) was determined by laser diffraction.

[2] = Aerodynamic particle size distribution by NGI (FPF, FPD, MMAD) of HFC-152a co-suspension MDIs; type: physicochemical
Text: (§1) In the context of a composition containing or providing respirable aggregates, particles, drops, etc., such as compositions described herein, the term “fine particle dose” or “FPD” refers to the dose, either in total mass or fraction of the nominal dose or metered dose, that is within a respirable range. The dose that is within the respirable range in measured in vitro to be the sum of the dose delivered at stages 3 through Micro Orifice Collector in a Next Generation Impactor operated at a flow rate of 30 l/min.
(§2) In the context of a composition containing or providing respirable aggregates, particles, drops, etc., such as compositions described herein, the term “fine particle fraction” or “FPF” refers to the proportion of the delivered material relative to the delivered dose (i.e. the amount that exits the actuator of a delivery device, such as an MDI) that is within a respirable range. The amount of delivered material within the respirable range is measured in vitro as the sum of the material delivered at stages 3 through Micro Orifice Collector in a Next Generation Impactor operated at a flow rate of 30 l/min.
The mixture is agitated to facilitate powder wetting and then transferred to a pressure vessel where the suspension is mixed. Valves comprised of 50 uL metering chambers (BK357, Bespak, King's Lynn, UK) are crimped onto fluorinated ethylene polymer (FEP) coated aluminum cans (Presspart, Blackburn, UK) and the suspension is then pressure filled through the valve.
Metered dose inhalers containing a triple co-suspension composition comprising glycopyrrolate, budesonide, and formoterol active agent particles were prepared, with each type of active agent particle being provided as a micronized, crystalline API material.

[3] = Aerodynamic particle size distribution by NGI after storage of the MDI (stability); type: physicochemical; settings: active in BGF-152a
Text: as §1, §2
The fine particle fraction (FPF) present in the delivered dose upon actuation of an MDI containing budesonide, formoterol, or glycopyrrolate active agent particles and phospholipid particles was measured following storage of the MDI under various temperature and relative humidity conditions for varied periods of time. […]

[4] = cited from earlier work; for Latent Heat @ Boiling Point: at boiling point
[5] = active in BGF-152a MDI, Example 2

For COc1ccc(CC(C)NCC(O)c2ccc(O)c(NC=O)c2)cc1.O=C(O)/C=C/C(=O)O (racemic) [FF, (±)-2-hydroxy-5-[(1RS)-1-hydroxy-2-[[(1RS)-2-(4-methoxyphenyl)-1-methylethyl]-amino]ethyl]formanilide fumarate], the “Optical diameter / size of 50% by volume of the particles (smaller than)” value [1] was “smaller than 1.6 μm” and the “Optical diameter / size of 90% by volume of the particles (smaller than)” value [1] was “smaller than 3.9 μm”.

In the case of CC(C)(C)NCC(O)c1ccc(O)c(CO)c1 (stereo not drawn) [AB, α1 [(tert-butylamino)methyl]-4-hydroxy-m xylene-α,α′-diol sulfate], the “Optical diameter / size of 50% by volume of the particles (smaller than)” value [1] is reported as “smaller than 1.5 μm”, the “Optical diameter / size of 90% by volume of the particles (smaller than)” value [1] is reported as “smaller than 3.3 μm” and the “FPD, <6.4 μm (μg/act)” value ([2]; active in BDA-152a MDI) is reported as 28.68 ± 0.61 μg/act. The “FPF, <6.4 μm (%)” value ([2]; active in BDA-152a MDI) was 31 ± 1% and the “MMAD (μm)” value ([2]; active in BDA-152a MDI) was 4.36 ± 0.06 μm.

For C[N+]1(C)CCC(OC(=O)C(O)(c2ccccc2)C2CCCC2)C1.[Br-] (centres unmarked) [GP, Pyrrolidinium, 3-((cyclopentylhydroxyphenylacetyl)oxy)-1,1-dimethyl-, bromide], the “Optical diameter / size of 50% by volume of the particles (smaller than)” value [1] was “smaller than 2.1 μm”, the “Optical diameter / size of 90% by volume of the particles (smaller than)” value [1] was “smaller than 5 μm” and the “FPD, <6.4 μm (μg/act)” value [2, 5] was 3.69 ± 0.36 μg/act. The “FPF, <6.4 μm (%)” value [2, 5] was 49 ± 3%, the “FPD, <6.4 μm (μg/act)” value ([2]; active in GFF-152a MDI) was 3.56 ± 0.18 μg/act and the “FPF, <6.4 μm (%)” value ([2]; active in GFF-152a MDI) was 48 ± 1%. For the same compound, the “MMAD (μm)” value ([2]; active in GFF-152a MDI) was 3.43 ± 0.07 μm, the “FPD, <6.4 μm (μg/act)” value ([3]; 1 month 25° C./60% RH) was 3.02 ± 0.08 μg/act and the “FPF, <6.4 μm (%)” value ([3]; 1 month 25° C./60% RH) was 45 ± 1%. The “FPD, <6.4 μm (μg/act)” value ([3]; 1 month 40° C./75% RH) was 3.18 ± 0.15 μg/act, the “FPF, <6.4 μm (%)” value ([3]; 1 month 40° C./75% RH) was 46 ± 1% and the “FPD, <6.4 μm (μg/act)” value ([3]; 3 month 25° C./60% RH) was 3.42 ± 0.08 μg/act. The “FPF, <6.4 μm (%)” value ([3]; 3 month 25° C./60% RH) was 49 ± 1%, the “FPD, <6.4 μm (μg/act)” value ([3]; 3 month 40° C./75% RH) was 3.62 ± 0.08 μg/act and the “FPF, <6.4 μm (%)” value ([3]; 3 month 40° C./75% RH) was 50 ± 1%. For the same compound, the “FPD, <6.4 μm (μg/act)” value ([3]; 6 month 25° C./60% RH) was 3.50 ± 0.07 μg/act, the “FPF, <6.4 μm (%)” value ([3]; 6 month 25° C./60% RH) was 50 ± 1% and the “FPD, <6.4 μm (μg/act)” value ([3]; 6 month 40° C./75% RH) was 3.44 ± 0.27 μg/act. The “FPF, <6.4 μm (%)” value ([3]; 6 month 40° C./75% RH) was 49 ± 2%, the “FPD, <6.4 μm (μg/act)” value ([3]; 12 month 25° C./60% RH) was 3.46 ± 0.05 μg/act and the “FPF, <6.4 μm (%)” value ([3]; 12 month 25° C./60% RH) was 48 ± 2%. For the same compound, the “FPD, <6.4 μm (μg/act)” value ([3]; Initial) was 3.18 ± 0.16 μg/act and the “FPF, <6.4 μm (%)” value ([3]; Initial) was 47 ± 2%.

In the case of FCC(F)(F)F [HFA-134a, 1,1,1,2-tetrafluoroethane], the “Liquid Density @ 20° C.” value [4] is listed as 1.23 g/mL, the “Liquid Viscosity @ 20° C.” value [4] is listed as 0.211 mPa · S and the “Surface Tension @ 20° C.” value [4] is listed as 8.09 mN/m. The “Vapor Pressure @ 20° C.” value [4] was 570 kPa, the “Latent Heat @ 25° C.” value [4] was 177.7 kJ/kg and the “Water Solubility in Propellant” value ([4]; @25) was 1100@25 ppm. For the same compound, the “Latent Heat @ Boiling Point” value [4] was 216.7 kJ/kg.

In the case of FC(C(F)(F)F)C(F)(F)F [HFA-227ea, 1,1,1,2,3,3,3-Heptafluoropropane], the “Liquid Density @ 20° C.” value [4] is listed as 1.41 g/mL, the “Liquid Viscosity @ 20° C.” value [4] is listed as 0.267 mPa · S and the “Surface Tension @ 20° C.” value [4] is listed as 7.50 mN/m. For the same compound, the “Vapor Pressure @ 20° C.” value [4] was 390 kPa, the “Latent Heat @ 25° C.” value [4] was 110.97 kJ/kg and the “Water Solubility in Propellant” value ([4]; @25) was 610@25 ppm. For the same compound, the “Latent Heat @ Boiling Point” value [4] was 131.4 kJ/kg.

For CC(F)F [HFC-152a, 1,1-Difluoroethane], the “Liquid Density @ 20° C.” value [4] is listed as 0.91 g/mL, the “Liquid Viscosity @ 20° C.” value [4] is listed as 0.171 mPa · S and the “Surface Tension @ 20° C.” value [4] is listed as 10.4 mN/m. For the same compound, the “Vapor Pressure @ 20° C.” value [4] was 510 kPa, the “Latent Heat @ 25° C.” value [4] was 279.1 kJ/kg and the “Water Solubility in Propellant” value ([4]; @25) was 2100@25 ppm. The “Latent Heat @ Boiling Point” value [4] was 318.4 kJ/kg.

In the case of C=C(F)C(F)(F)F [HFO-1234yf, 2,3,3,3-Tetrafluoropropene], the “Liquid Density @ 20° C.” value [4] is given as 1.11 g/mL, the “Liquid Viscosity @ 20° C.” value [4] is given as 0.164 mPa · S and the “Surface Tension @ 20° C.” value [4] is given as 6.8 mN/m. The “Vapor Pressure @ 20° C.” value [4] was 592 kPa, the “Latent Heat @ 25° C.” value [4] was 145.4 kJ/kg and the “Water Solubility in Propellant” value ([4]; @24) was 200@24 ppm. The “Latent Heat @ Boiling Point” value [4] was 180.5 kJ/kg.

In the case of FC=CC(F)(F)F [HFO-1234ze], the “Liquid Density @ 20° C.” value [4] is given as 1.18 g/mL, the “Liquid Viscosity @ 20° C.” value [4] is given as 0.206 mPa · S and the “Surface Tension @ 20° C.” value [4] is given as 8.9 mN/m. The “Vapor Pressure @ 20° C.” value [4] was 427 kPa, the “Latent Heat @ 25° C.” value [4] was 166.8 kJ/kg and the “Water Solubility in Propellant” value ([4]; @20) was 225@20 ppm. For the same compound, the “Latent Heat @ Boiling Point” value [4] was 195.43 kJ/kg.
